Laboratory results taken from patent publication US9090651B2, “Helix 12 directed pharmaceutical products” (ENDORECHERCHE, INC., priority 2004, dated 2015).
Values joined by “and” are separate entries in the source; they are usually repeats but may differ in a detail not shown here. Identical values can stand only once. Like-named read-outs stand apart in the source and are kept apart here.

What was measured:
[1] = test system: Shionogi mouse mammary carcinoma cells; experiment: Androgenic/antiandrogenic activity on DHT-stimulated Shionogi cell growth; assay type: cell-based
Human Androgen Receptor = molecular target: T1, Human Androgen Receptor (Homo sapiens, UniProt P10275); experiment: Androgen receptor binding assay (hydroxylapatite, [3H]R1881, cytosol of transfected HEK-293 cells); settings: for Androgen Receptor Binding (%) Human RBA R1881 = 100: % RBA=100×IC50 R1881/IC50 compound, transfected cells
T1 sequence (P10275 1-920): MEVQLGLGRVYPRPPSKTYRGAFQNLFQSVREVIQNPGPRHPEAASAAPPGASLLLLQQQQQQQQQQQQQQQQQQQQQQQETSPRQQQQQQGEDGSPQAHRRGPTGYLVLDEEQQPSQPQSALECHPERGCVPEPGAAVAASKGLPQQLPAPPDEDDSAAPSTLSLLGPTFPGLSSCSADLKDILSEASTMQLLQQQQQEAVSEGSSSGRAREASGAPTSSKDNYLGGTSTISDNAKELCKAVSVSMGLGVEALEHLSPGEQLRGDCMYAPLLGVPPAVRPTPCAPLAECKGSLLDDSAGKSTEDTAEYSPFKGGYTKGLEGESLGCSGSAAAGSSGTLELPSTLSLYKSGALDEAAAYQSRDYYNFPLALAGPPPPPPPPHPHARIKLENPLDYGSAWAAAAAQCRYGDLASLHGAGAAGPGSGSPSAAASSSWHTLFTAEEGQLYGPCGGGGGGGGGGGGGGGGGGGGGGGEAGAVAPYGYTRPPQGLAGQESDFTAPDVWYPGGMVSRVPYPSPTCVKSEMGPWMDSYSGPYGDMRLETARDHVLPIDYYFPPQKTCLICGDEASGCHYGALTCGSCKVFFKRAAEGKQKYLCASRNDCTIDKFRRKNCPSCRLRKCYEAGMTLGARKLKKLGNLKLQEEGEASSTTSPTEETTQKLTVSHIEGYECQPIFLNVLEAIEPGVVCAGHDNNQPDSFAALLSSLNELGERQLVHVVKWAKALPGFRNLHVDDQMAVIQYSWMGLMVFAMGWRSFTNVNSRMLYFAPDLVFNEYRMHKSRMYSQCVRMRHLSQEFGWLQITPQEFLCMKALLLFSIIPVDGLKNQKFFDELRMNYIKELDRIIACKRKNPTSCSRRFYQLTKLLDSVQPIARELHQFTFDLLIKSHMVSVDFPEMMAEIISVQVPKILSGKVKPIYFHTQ

[2] = Mus musculus, read-out: Shionogi Antiandrogenic activity IC50 (nM), inhibition of DHT-stimulated Shionogi cell number

Compound | IC50 [1, 2] | Androgen Receptor Binding (%) Human RBA R1881 = 100 (Human Androgen Receptor) | other results
CCC(CC)NCc1cc(C#N)cc(OCC[C@]23CCC4C(CCC5CC(=O)CC[C@@]54C)C2CC[C@@H]3O)c1 (stereo partly shown) [EM-6509] | 1.9 nM | 119% | –
CN(C)CC(NC1CCCCC1)c1cncc(OCC[C@]23CCC4C(CCC5=CC(=O)CC[C@@]54C)C2CCC3O)c1 (stereo partly shown) [EM-7221] | 11 nM | 20% | –
CCCCC(NC1CCCCC1)c1cccc(OCC[C@]23CCC4C(CCC5CC(=O)CC[C@@]54C)C2CCC3O)c1 (stereo partly shown) [EM-6895] | 4.2 nM | 115.5% | –
O=C1C=C2CCC3C(CC[C@@]4(CCOc5cccc(CN6CCCCC6)c5)C3CC[C@@H]4O)C2CC1 (stereo partly shown) [EM-6564] | 66 nM | 3.6% | –
CCC(c1cncc(OCC[C@]23CCC4C(CCC5CC(=O)CC[C@@]54C)C2CCC3O)c1)N1CCOCC1 (stereo partly shown) [EM-7106] | 81 nM | 2.5% | –
CCC(NC1CCOCC1)c1cncc(OCC[C@]23CCC4C(CCC5CC(=O)CC[C@@]54C)C2CCC3O)c1 (stereo partly shown) [EM-7107] | 1 nM | 66.2% | –
CCC(NC1CCOCC1)c1cccc(OCC[C@]23CCC4C(CCC5CC(F)=CC[C@@]54C)C2CCC3O)c1 (stereo partly shown) [EM-6996] | 37.3 nM | 32% | –
CCC(NC(C)C)c1cc(OCC[C@]23CCC4C(CCC5=CC(=O)CC[C@@]54C)C2CCC3O)ccn1 (stereo partly shown) [EM-7167] | – | 42% | –
CCC1COCC(c2cccc(OCC[C@]34CCC5C(CCC6CC(=O)CC[C@@]65C)C3CCC4O)c2)N1 (stereo partly shown) [EM-7111] | 13 nM | 39% | –
CCC(NC1CCS(=O)(=O)CC1)c1cccc(OCC[C@]23CCC4C(CCC5CC(=O)CC[C@@]54C)C2CCC3O)c1 (stereo partly shown) [EM-6836] | 2.4 nM | 62% | –
CC1CCC(NCc2cccc(OCC[C@]34CCC5C(CCC6CC(=O)CC[C@@]65C)C3CC[C@@H]4O)c2)CC1 (stereo partly shown) [EM-6423] | 5 nM | 43% | –
CCC(NC1CCOCC1)c1cccc(OCC[C@]23CCC4C(CCC5CC(=O)CC[C@@]54C)C2CC[C@@H]3O)c1 (stereo partly shown) [EM-6666] | 0.16 nM | 211.3% | –
CCC(NC(C)C)c1cccc(OCC[C@]23CCC4C(CCC5=CC(=O)CC[C@@]54C)C2CC[C@@H]3O)c1 (stereo partly shown) [EM-6960] | < 0.1 nM | 147% | –
CCC(CC)NCc1ccc(F)c(OCC[C@]23CCC4C(CCC5CC(=O)CC[C@@]54C)C2CC[C@@H]3OC)c1 (stereo partly shown) [EM-6406] | 7.8 nM | 226% | –
CC(C)(c1cccc(OCC[C@]23CCC4C(CCC5CC(=O)CC[C@@]54C)C2CC[C@@H]3O)c1)N1CCCCC1 (stereo partly shown) [EM-6740] | 15 nM | 42.5% | –
CCC(Nc1ccncc1)c1cccc(OCC[C@]23CCC4C(CCC5CC(=O)CC[C@@]54C)C2CCC3O)c1 (stereo partly shown) [EM-6857] | 63 nM | 5% | –
CCC(NC1CCOCC1)c1cncc(OCC[C@]23CCC4C(CCC5=CC(=O)CC[C@@]54C)C2CCC3O)c1 (stereo partly shown) [EM-7176] | 7.2 nM | 16% | –
CCC(CC)N[C@@H](CC)c1cccc(OCC[C@]23CCC4C(CCC5N(C)C(=O)CC[C@]45C)C2CC[C@@H]3O)c1 (stereo partly shown) [EM-6549] | – | 5.8% | IC50 ([1]; Mus musculus, inhibition of DHT-stimulated Shionogi cell number, read-out: Shionogi Antiandrogenic activity IC50): 3.5 nM; IC50 ([1]; inhibition of DHT-stimulated Shionogi cell number, read-out: Shionogi Antiandrogenic activity IC50): 6 nM

Compound | IC50 [1, 2] | Androgen Receptor Binding (%) Human RBA R1881 = 100 (Human Androgen Receptor) | other results
C[C@H]1CCCCC1NCc1cccc(OCC[C@]23CCC4C(CCC5CC(=O)CC[C@@]54C)C2CC[C@@H]3O)c1 (stereo partly shown) [EM-6438] | 2.2 nM | 119% | –
C[C@]12CCC(=O)CC1CCC1C2CC[C@@]2(CCOc3cccc(CNC4CC5CCC4C5)c3)C1CC[C@@H]2O (stereo partly shown) [EM-6470] | – | 34% and 62% | IC50 ([1]; read-out: Shionogi Antiandrogenic activity IC50, inhibition of DHT-stimulated Shionogi cell number): 3.5 nM and 2.4 nM
CCCCS(=O)(=O)Cc1cccc(OCC[C@]23CCC4C5CCC(=O)C=C5CCC4C2CC[C@@H]3O)c1 (stereo partly shown) [EM-6861] | 32 nM | 3.0% | –
CCC(CC)NCc1cc(CNC(CC)CC)cc(OCC[C@]23CCC4C(CCC5CC(=O)CC[C@@]54C)C2CC[C@@H]3O)c1 (stereo partly shown) [EM-6452] | 1.8 nM | 104% | –
CC[C@@H](NC1CCCCC1)c1cccc(OCC[C@]23CCC4C(CCC5CC(=O)CC[C@@]54C)C2CCC3O)c1 (stereo partly shown) [EM-7062] | 0.7 nM | 535% | –
CC(C)CNC1(c2cccc(OCC[C@]34CCC5C(CCC6CC(=O)CC[C@@]65C)C3CCC4O)c2)CC1 (stereo partly shown) [EM-6905] | 4.4 nM | 274.8% | –
C[C@]12CCC(=O)CC1CCC1C2CC[C@]2(CCOc3cccc(CNc4ccncc4)c3)C(O)CCC12 (stereo partly shown) [EM-6856] | 32 nM | 6% | –
O=C1C=C2CCC3C(CC[C@@]4(CCOc5cccc(C[S+]([O-])c6ccccc6)c5)C3CC[C@@H]4O)C2CC1 (stereo partly shown) [EM-6847] | 46 nM | 3.2% | –
C[C@H](NC1CCCCC1)c1cccc(OCC[C@]23CCC4C(CCC5CC(=O)CC[C@@]54C)C2CC[C@@H]3O)c1 (stereo partly shown) [EM-6271] | – | 196% and 178% | –
CC(C)(C)CNCc1cccc(OCC[C@]23CCC4C(CCC5CC(=O)CC[C@@]54C)C2CC[C@@H]3O)c1 (stereo partly shown) [EM-6335] | – | 106% and 86% | –
CCCC(c1cccc(OCC[C@]23CCC4C(CCC5CC(=O)CC[C@@]54C)C2CC[C@@H]3O)c1)N(C)C(CC)CC (stereo partly shown) [EM-6572] | – | 744% | –
CCC[C@]1(O)CCC2C3CCC4CC(=O)CC[C@]4(C)C3CC[C@@]21CCOc1cccc(C(CC)NC(CC)CC)c1 (stereo partly shown) [EM-6522] | – | 41% | –
CC(NC1CCCC1)c1cccc(OCC[C@]23CCC4C(CCC5CC(=O)CC[C@@]54C)C2CC[C@@H]3O)c1 (stereo partly shown) [EM-6536] | – | 87% | –
CCC(CC)NC(CC)c1cccc(OCC[C@]23CCC4C(CCC5=CC(=O)CC[C@@]54C)C2CC[C@@H]3O)c1 (stereo partly shown) [EM-6526] | – | 59% | –
CC(C)(O)C(=O)Nc1ccc([N+](=O)[O-])c(C(F)(F)F)c1 [OH-FLU, hydroxyflutamide, reference compound] | – | 0.29% and 0.1% | –
C[C@]1(O)CC[C@H]2[C@@H]3CCC4=CC(=O)CCC4=C3C=C[C@@]21C [R1881, reference compound] | – | – | relative binding affinity to the wild-type hAR (Human Androgen Receptor): 100
CCC(NC(C)C)c1cc(OCC[C@]23CCC4C(CCC5CC(=O)CC[C@@]54C)C2CCC3O)ccn1 (stereo partly shown) [EM-7170] | – | 120.6% | –
